Test results published in US5244895A, “Anti-ulcer agent” (Hidaka; Hiroyoshi, priority 1991, dated 1993).
Where two headings read alike, the source gives them in different places.

Legend:
Format in all cases: in vivo, Crj:Wistar rat (male)
[1] = test system: gastric juice secretion; experiment: Anti-gastric juice secretion test, intraduodenal administration (pylorus ligation); conditions: 100 mg/kg intraduodenal, 4 h after pylorus ligation; for pH of gastric juice: control 1.7; for Amount of gastric juice: control 2.6; for Free hydrochloric acid: control 116; for Total acidity: control 168
Experimental: Each 100 mg/kg of the test compounds was administered duodenally to a male Crj:Wistar rat of 205 to 240 g body weight fasted for ca. 24 hours (7 to 8 rats per group) and immediately after the dose the pylorus was ligated under diethyl ether anesthesia. Four hours after the ligation, the animal was killed and the stomach was isolated and the amount and the pH of gastric juice and free hydrochloric acid contained in it and the total acidity of it were measured to examine the effect of inhibiting gastric juice secretion. The test compounds were dosed after dissolved in physiological saline or in physiological saline containing Tween 80 added. Five […] of physiological saline was administered to the control group.

[2] = test system: water immersion restriction stress ulcer; experiment: Water immersion restriction stress ulcer, oral administration; conditions: for Gastric damage index: 30 min before 6 h water immersion stress, control 15.7; for inhibition in vivo at 100 mg/kg: Rattus norvegicus, 6 h, read-out: Inhibition rate
Experimental: (§1) After the stress loading, the animal was killed by exsanguination and the cardia part of stomach was ligated and then 10 ml of 1% formalin was poured into the stomach and the stomach was extirpated. […] 0.5 ml/body weight of 1% pontamine sky blue physiological saline was injected intravenously 10 minutes before the slaughter. The test compound was administered after dissolved in physiological saline or in physiological saline containing Tween 80 added. Five […] of physiological saline was administered to the control group.

[3] = test system: aspirin ulcer; experiment: Anti-aspirin ulcer test, oral administration; conditions: 100 mg/kg oral, 6 h; for Gastric damage index: 30 min before aspirin 200 mg/kg oral, control 76.0; for inhibition in vivo at 100 mg/kg: Rattus norvegicus, gastric damage index vs control, aspirin 200 mg/kg, read-out: Inhibition rate
Experimental: (§2) Each 100 mg/kg of the test compounds was administered orally to a male Crj:Wistar rat of 198 to 243 g body weight fasted for ca. 24 hours (7 to 8 rats per group) and 30 minutes after the administration 200 mg/5 ml/kg of aspirin suspended in 0.5% sodium CMC aqueous solution was administered orally. Six hours later the animals was killed by exsanguination and the cardia part of stomach was ligated and 10 ml of 1% formaline solution was poured into the stomach and the stomach was extirpated. Then, it was incised along the greater curvature side and washed with physiological saline and the major axis of the spotted and linear erosion and ulcer were measured under a steromicroscope and their total sum per head was calculated as the gastric damage index (mm) and the effect was judged by the inhibiting rate against the control group [(Gastric damage index of the control group-Gastric damage index of the test compound)/Gastric damage index of the control group×100]. 0.5 ml/body weight of 1% pontamine sky blue physiological saline was injected intravenously 10 minutes before the slaughter. The test compound was administered after dissolved in physiological saline or in physiological saline containing Tween 80 added. Five […] of physiological saline was administered to the control group.

[4] = test system: aspirin ulcer; experiment: Anti-aspirin ulcer test, intraperitoneal administration; conditions: for Gastric damage index: 100 mg/kg intraperitoneal (abdominally injected), control 58.8; for Inhibition rate: gastric damage index vs control, 100 mg/kg intraperitoneal
Experimental: as §2
Each 100 mg/kg of the test compound was abdominally injected to a male Crj:Wistar rat of 210 to 265 g body weight fasted for ca. 24 hours (7 to 8 rats per group) and the procedures were carried out in a same manner as in oral administration.

[5] = test system: gastric juice secretion; experiment: Anti-gastric juice secretion test, intraperitoneal administration (pylorus ligation); conditions: 100 mg/kg intraperitoneal, 30 min before pylorus ligation; for pH of gastric juice: control 1.7; for Amount of gastric juice: control 3.2; for Free hydrochloric acid: control 155; for Total acidity: control 208
[6] = test system: water immersion restriction stress ulcer; experiment: Water immersion restriction stress ulcer, intraperitoneal administration; conditions: 100 mg/kg intraperitoneal; for Gastric damage index: control 22.7; for Inhibition rate: gastric damage index vs control
Experimental: as §1

[7] = gastric damage index vs control, 100 mg/kg oral, water immersion stress

SMILES | pH of gastric juice [1] | Amount of gastric juice [1] [ml/100 g body weight] | Free hydrochloric acid [1] [μEq/100 g body weight] | Total acidity [1] [μEq/100 g body weight] | Gastric damage index ([2]; 100 mg/kg oral) [mm] | inhibition in vivo at 100 mg/kg [2, 7] [%] | Gastric damage index [3] [mm] | inhibition in vivo at 100 mg/kg [3] [%] | Gastric damage index [4] [mm] | Inhibition rate [4] [%] | pH of gastric juice [5] | Amount of gastric juice [5] [ml/100 g body weight] | Free hydrochloric acid [5] [μEq/100 body weight] | Total acidity [5] [μEq/100 body weight] | Gastric damage index [6] [mm] | Inhibition rate [6] [%] | inhibition in vivo at 100 mg/kg ([2]; po) [%]
O=S(=O)(NC(Cc1ccc(O)cc1)CN1CCN(c2ccccc2)CC1)c1cccc2cnccc12 (stereo not drawn) [(1), N-[1-(p-hydroxybenzyl)-2-(4-phenylpiperazinyl)ethyl]-5-isoquinoline sulfonamide] | 2.0 | 2.2 | 36 | 71 | 10.5 | 33 | 40.1 | 47 | – | – | – | – | – | – | – | – | –
CN(C(Cc1ccc(O)cc1)CN1CCN(c2cccc(Cl)c2)CC1)S(=O)(=O)c1cccc2cnccc12 (stereo not drawn) [(2), N-{2-[4-(m-chlorophenyl)piperazinyl]-1-(p-hydroxybenzyl)ethyl}-N-methyl-5-isoquinoline sulfonamide] | 2.1 | 2.1 | 40 | 92 | 9.7 | 38 | 40.3 | 46 | – | – | – | – | – | – | – | – | –
O=S(=O)(NC(Cc1ccc(OS(=O)(=O)c2cccc3cnccc23)cc1)CN1CCN(c2ccc(F)cc2)CC1)c1cccc2cnccc12 (stereo not drawn) [(3), N-{2-[4-(p-fluorophenyl)piperazinyl]-1-(p-(5-isoquinolinesulfonyloxy)benzyl]ethyl}-5-isoquinoline sulfonamide] | 1.8 | 2.5 | 82 | 140 | 11.2 | 29 | 56.7 | 25 | – | – | – | – | – | – | – | – | –
O=S(=O)(NC(Cc1ccc(O)cc1)CN1CCCN(c2ccccc2)CC1)c1cccc2cnccc12 (stereo not drawn) [(6), N-[1-(p-hydroxybenzyl)-2-(4-phenylhomopiperazinyl)ethyl]-5-isoquinolinesulfonamide] | 1.8 | 2.3 | 53 | 87 | 12.2 | 22 | 52.9 | 30 | – | – | – | – | – | – | – | – | –
O=S(=O)(NC(Cc1ccc(O)cc1)CN1CCC(OCc2ccc(Cl)c(Cl)c2)CC1)c1cccc2cnccc12 (stereo not drawn) [(7), N-{1-(p-hydroxybenzyl)-2-[4-(3,4-dichlorobenzyloxy)piperidino]ethyl}-5-isoquinoline sulfonamide] | 2.5 | 1.2 | 26 | 63 | 5.4 | 66 | 26.9 | 65 | 15.3 | 74 | 2.6 | 1.5 | 32 | 71 | 7.0 | 69 | –
CN(C(Cc1ccc(O)cc1)CN1CCC(OCc2ccc(Cl)c(Cl)c2)CC1)S(=O)(=O)c1cccc2cnccc12 (stereo not drawn) [(8), N-{1-(p-hydroxybenzyl)-2-[4-(3,4-dichlorobenzyloxy)piperidino]ethyl}-N-methyl-5-isoquinoline sulfonamide] | 2.3 | 1.6 | 32 | 68 | 6.5 | – | 28.9 | 62 | – | – | – | – | – | – | – | – | 59
COc1ccc(CC(CN2CCC(OCc3ccc(Cl)c(Cl)c3)CC2)N(C)S(=O)(=O)c2cccc3cnccc23)cc1 (stereo not drawn) [(9), N-{1-(p-methoxybenzyl)-2-[4-(3,4-dichlorobenzyloxy)piperidino]ethyl}-N-methyl-5-isoquinoline sulfonamide] | 2.1 | 2.2 | 44 | 89 | 9.7 | 38 | 45.4 | 40 | – | – | – | – | – | – | – | – | –
CN(C(Cc1ccc(OS(=O)(=O)c2cccc3cnccc23)cc1)CN1CCC(c2ccccc2)CC1)S(=O)(=O)c1cccc2cnccc12 (stereo not drawn) [(10), N-{1-(p-(5-isoquinolinesulfonyloxy)benzyl]-2-(4-phenylpiperidino)ethyl}-N-methyl-5-isoquinoline sulfonamide] | 1.8 | 2.4 | 68 | 102 | 11.2 | 29 | 48.3 | 37 | – | – | – | – | – | – | – | – | –
CN(C(Cc1ccc(O)cc1)CN1CCC(c2ccccc2)CC1)S(=O)(=O)c1cccc2cnccc12 (stereo not drawn) [(11), N-[1-(p-hydroxybenzyl)-2-(4-phenylpiperidino)ethyl]-N-methyl-5-isoquinoline sulfonamide] | 2.5 | 1.5 | 36 | 65 | 6.8 | 57 | 27.3 | 64 | – | – | – | – | – | – | – | – | –
O=C(C(Cc1ccc(OS(=O)(=O)c2cccc3cnccc23)cc1)NS(=O)(=O)c1cccc2cnccc12)N1CCN(c2ccccc2)CC1 (stereo not drawn) [(12), N-[N,O-bis(5-isoquinolinesulfonyl)tyrosyl]-4-phenylpiperizine] | 2.1 | 2.2 | 41 | 80 | 9.4 | 40 | 43.5 | 43 | – | – | – | – | – | – | – | – | –
CN(C(Cc1ccc(OS(=O)(=O)c2cccc3cnccc23)cc1)C(=O)N1CCN(c2ccccc2)CC1)S(=O)(=O)c1cccc2cnccc12 (stereo not drawn) [(13), N-[N,O-bis(5-isoquinolinesulfonyl)-N-methyltyrosyl]-4-phenylpiperizine] | 2.3 | 1.9 | – | – | 5.4 | 66 | 30.3 | 60 | 17.6 | 70 | 2.4 | 1.6 | 55 | 102 | 6.4 | 72 | –
